The target of series [1] is cruzain (Trypanosoma cruzi, UniProt P25779). The series is described as follows: biochemical. It counts as biochemical. The following applies: for change of cruzain IC50 between low and high detergent concentration: 0.001% vs 0.01% Triton X-100; for cruzain inhibition (in words): Figure 1 analogs.
The target of series [2] is AmpC β-lactamase (Escherichia coli, UniProt P00811). Put plainly: AmpC β-lactamase detergent-sensitive inhibition. It counts as biochemical. The following applies: reversal by 0.01% Triton.
Series [3] can be described thus: particle. The class given is physicochemical. The following applies: for particles? lowest evaluated concentration at which particle formation was observed: flow cytometry, in some cases confirmed by DLS. For orientation: Flow cytometry measures light scatter and fluorescence of single cells or particles in a stream.
Setting [4] is: high Triton (0.01% Triton X-100), 23 at 50 μM.
Where [5] appears, read: low Triton (0.001% Triton X-100), 23 at 5 μM, 1 at 25 μM.

A word on the IC50: it is the concentration that gives 50% inhibition. Low values mean greater potency in that assay, high ones weaker potency in that assay.

SMILES strings stand for the structures.

cruzain, sequence (P25779 123-467): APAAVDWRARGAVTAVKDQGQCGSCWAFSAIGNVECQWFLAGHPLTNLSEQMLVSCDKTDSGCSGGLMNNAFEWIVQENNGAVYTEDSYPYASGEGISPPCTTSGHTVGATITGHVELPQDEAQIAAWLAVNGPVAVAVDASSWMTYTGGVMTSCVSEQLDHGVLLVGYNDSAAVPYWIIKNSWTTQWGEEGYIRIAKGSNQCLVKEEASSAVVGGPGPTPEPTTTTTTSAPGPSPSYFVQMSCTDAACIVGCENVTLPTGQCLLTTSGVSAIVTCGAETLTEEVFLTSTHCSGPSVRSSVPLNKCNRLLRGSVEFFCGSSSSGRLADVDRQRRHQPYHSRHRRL
AmpC β-lactamase, sequence (P00811 20-377): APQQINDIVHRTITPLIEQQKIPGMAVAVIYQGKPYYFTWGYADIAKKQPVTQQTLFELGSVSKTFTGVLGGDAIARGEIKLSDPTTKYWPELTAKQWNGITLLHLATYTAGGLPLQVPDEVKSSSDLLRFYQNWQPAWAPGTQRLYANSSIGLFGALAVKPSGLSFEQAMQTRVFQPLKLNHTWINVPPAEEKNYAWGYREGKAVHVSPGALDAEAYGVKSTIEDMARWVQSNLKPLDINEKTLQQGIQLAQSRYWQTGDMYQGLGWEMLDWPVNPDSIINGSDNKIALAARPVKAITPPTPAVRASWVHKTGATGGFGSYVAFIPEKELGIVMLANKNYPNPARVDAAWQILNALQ

On to `Nc1ncccc1C(=O)OCC(=O)Nc1cc(Cl)ccc1Cl` [Compound 1], for which the “change of cruzain IC50 between low and high detergent concentration” value in series [1] is ~ 3 fold. Further, in series [1] (0.01% Triton X-100), the “dependence of cruzain inhibition on incubation time” value is given as “independent of incubation time”. Besides, the results for the “mode of cruzain inhibition” value in series [1] (setting [4]) and in series [1] (setting [5]) were “competitive inhibition” and “non-competitive”, respectively. In addition, in series [2], the “detergent-reversible inhibition of AmpC β-lactamase” value was “found to inhibit AmpC, and its inhibition was reversed by 0.01% Triton”. The “particles? lowest evaluated concentration at which particle formation was observed” value in series [3] is 25 µM.
Take `Nc1ncccc1C(=O)OCC(=O)NC1CCCCCC1` [Compound 2]: in series [1], the “change of cruzain IC50 between low and high detergent concentration” value is recorded as “essentially unaltered”. Besides, the “mode of cruzain inhibition” value in series [1] (setting [4]) was “competitive inhibitors”.
For `CCC(NC(=O)COC(=O)c1cccnc1N)c1ccc(Br)cc1` (stereo not shown) [Compound 3] the same measures were “essentially unaltered” and “competitive inhibitors”.
For the compound `O=C(COC(=O)c1ccccn1)Nc1cc(Cl)ccc1Cl` [Compound 4], the “cruzain inhibition (in words)” value in series [1] was “essentially inactive”.
On the same count and under the same terms, the entry for `Cc1cccc(C(=O)OCC(=O)Nc2cc(Cl)ccc2Cl)c1` [Compound 5] is “essentially inactive”.
As to `Nc1ccccc1-c1nnc(C(=O)Nc2ccc3oc4c(c3c2)CCCC4)o1` [Compound 12], in series [3] (DLS and flow cytometry, 0.001% Triton X-100, relevant inhibitory concentrations), the “formation of colloidal aggregates (particles)” value is listed as “the exception”. The “particles? lowest evaluated concentration at which particle formation was observed” value in series [3] is more than 100 µM.
With `CCN1CCC[C@H]1CNC(=O)c1nnc(-c2ccccc2N)o1` [Compound 18], the “particles? lowest evaluated concentration at which particle formation was observed” value in series [3] is more than 200 µM.
As to `Nc1ccccc1-c1nnc(C(=O)Nc2cc(-c3cccs3)[nH]n2)o1` [Compound 23], the IC50 in series [1] came out at 82.4 µM. In addition, the “mode of cruzain inhibition” value is “competitive” in series [1] (setting [4]) and “non-competitive” in series [1] (setting [5]).
Turning to `Cc1cc(NC(=O)c2nnc(-c3ccccc3N)o2)n[nH]1` [Compound 25], the “detergent-reversible inhibition of AmpC β-lactamase” value in series [2] was “the exception”.

The values above are taken from article PMC3760508 (Journal of medicinal chemistry, 2009).
